Results on one molecule are retold here after patent US11980613B2, “Methods for reversing HIV latency using BAF complex modulating compounds” (priority 2018, dated 2024).

For the experiment, the system named is Bmi1-luciferase reporter cell line. Briefly: Bmi1-luciferase reporter assay (screen for inhibitors of BAF-mediated transcriptional repression). The class given is cell-based, mouse. As to conditions: grading in words. Here is the method:
Low passage mESCs from 129 mice (20 million, p10) were electroporated with 40 μg of a linearized construct consisting of 2 kb homology upstream of the Bmi1 locus, firefly luciferase at exon 1 of Bmi1 followed by loxP neo and a 6 kb 3′ homology arm with thymidine kinase outside the homology arms. The cells were plated on 10 gelatin treated plates (60 mm) of irradiated neo resistant MEFs and selected with G418 and ganciclovir for 5 days. 384 colonies were selected, trypsinized and replated in gelatin treated 24-well plates for expansion. The cells were split and DNA was isolated for digestions with EcoRI or BamHI. We confirmed the successful homologous recombination in 7 out 384 colonies using Southern blot analysis at both the 5′ (EcoRI) and 3′ (BamHI) end (see Table S2 of Marian et al., “Small Molecule Targeting of Specific BAF (mSWI/SNF) Complexes for HIV Latency Reversal,” Cell Chem. Biol. (Dec. 20, 2018) 25: 1443-1445). We deleted the neomycin cassette using transfected Cre recombinase and confirmed the excision at all clones using a second round of Southern blot analysis at the 3′ end (BamHI).
3. Compound Treatment: 10,000 cells in 30 μL ESC media were plated in white 384 well CellBind plates. The cells were cultured in a 37° C., 5% CO2 incubator for 24 h and 100 nL/well of 0.75 mM of positive control (Pubchem SID: 85814977) or 100 nL/well of 3.75 mM compound library (primary screen) was added via pin transfer into plates. There was no effect on assay readout at DMSO concentrations up to 0.5%. The cells were cultured in a 37° C., 5% CO2 incubator for 24 h for luciferase reporter assay and 18 h for qRT-PCR assay. 4. Luciferase assay: (PubChem AID 602393 primary, PubChem AID 651717 confirmatory.) The assay plates were removed from the incubator and equilibrates for 10 minutes to room temperature. Promega SteadyGlo® solution (10 μL/well) was added to each well of the assay plates. The assay plates were mixed at 1000 rpm for 15 seconds and then incubated for 10 minutes at room temperature. The luciferase levels were read on a Perkin Elmer Envision in Ultra Sensitive Luminescence mode. Signals remained stable up to 2 hours. 5. EqRT-PCR secondary screen (PubChem AID 743180, 743177, 743176) The qRTPCR screen was performed as published^54. In brief, 5,000 ES cells were plated on gelatin-coated 384-well tissue culture plates and cultured in a 37C, 5% CO2 incubator. 24 h later, hit compounds in 100 nL DMSO were treated at eight different doses. 18 h after compound treatment cells were washed two times with 100 μL PBS and all excess PBS was removed by centrifuging the plates upside down at 1000 rpm. The Ambion® Cells-to-Ct kit was used to generate cDNA. In brief, the cells were lysed in the plate in 10 μL lysis buffer containing DNase for 10 minutes and quenched with 1 μL lysis stop buffer. The lysate (2 μL) was added to 5 μL RT reaction buffer (2×), 2.5 μL nuclease-free water and 0.5 μL Reverse transcriptase (20×) and incubated at 37° C. for 60 minutes and 95° C. for 1 minute to generate 10 μL of cDNA. cDNA (1 μL) was used in each 5 μL qPCR reaction with Roche master mix and TaqMan probes (Applied Biosystems) for Bmi1-FAM (Mm00776122_gH), Ring1a-FAM (Mm01278940_m1/4331182), or Fgf4-FAM (Mm00438916_g1/4351372) alongside actin-VIC (4352341E) for a loading control. The qPCR was run accordingly: 95° C. for 10 minutes Then 55 cycles of: 95° C. for 10 seconds followed by 60° C. for 30 seconds. The fold increase in transcription was calculated using the ΔΔCT method^84. 6. Viability Assays (PubChem AID: 743188, 743189, 743190, 1053139, 1053140, 1053141)
(In a reporter assay the amount or activity of a reporter protein is the signal.)

Consider `CO[C@H]1CN(C)C(=O)c2cc(NC(=O)OC(C)C)ccc2OC[C@H](C)N(Cc2ccc(-c3ccccn3)cc2)C[C@@H]1C` [BRD-K80443127], for which the “activity in the Bmi1 luciferase reporter assays” value is listed as “high activity”.
